According to patent US20060194971A1, “Anethole dithiolethione and other dithiolethiones for the treatment of conditions associated with dysfunction of monoamine neruotransmission” (priority 2005, published 2006):
pIC50: −log10 of the molar value. Where two headings read alike, the source gives them in different places.

Experiments:
[1] = molecular target: T1, monoamine oxidase-B (MAO-B) (Rattus norvegicus, UniProt P19643); test: MAO-B activity in astroglial cell extracts in the presence of clorgyline, Amplex Red MAO assay; format: biochemical
T1 construct: in cellular extracts obtained from cultures of neonatal rat striatal astroglial cells; endogenous in cells; host or cells: cultured neonatal rat striatal astroglial cells (supernatant of sonicated lysate)
T1 sequence (P19643 1-520): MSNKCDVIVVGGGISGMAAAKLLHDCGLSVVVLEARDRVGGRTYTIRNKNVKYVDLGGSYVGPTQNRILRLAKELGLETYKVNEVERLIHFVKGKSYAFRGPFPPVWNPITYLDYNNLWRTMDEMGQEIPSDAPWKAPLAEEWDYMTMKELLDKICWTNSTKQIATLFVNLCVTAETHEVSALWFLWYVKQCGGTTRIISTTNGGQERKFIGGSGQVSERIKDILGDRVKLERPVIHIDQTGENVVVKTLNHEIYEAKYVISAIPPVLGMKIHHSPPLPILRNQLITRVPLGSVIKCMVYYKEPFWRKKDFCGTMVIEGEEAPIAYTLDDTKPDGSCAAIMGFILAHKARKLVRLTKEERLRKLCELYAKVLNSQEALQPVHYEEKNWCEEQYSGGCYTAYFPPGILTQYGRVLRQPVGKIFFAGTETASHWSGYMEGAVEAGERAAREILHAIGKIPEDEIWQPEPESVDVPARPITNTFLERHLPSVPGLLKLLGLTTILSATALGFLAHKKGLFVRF
Procedure: (§1) Neonatal rat striatal astroglial cells were used as a source for both MAO-A and MAO-B activity (Carlo et al., Brain Res 711, 175-183, 1996). Astroglial cells were cultured as described (Langeveld et al., Neurosci. Lett. 192, 13-16, 1995). Following one week in culture in 5% CO2/95% air and at 37° C., cells were trypsinized and sonicated in ice cold 25 mM Tris-HCl buffer (pH 7.4) containing 1 mM EDTA. Thereafter, the obtained lysates were centrifuged for 5 min at 1 0,000 g and 4° C., and aliquots of the supernatant fractions were taken for determination of MAO activity using the Amplex Red MAO assay kit (Molecular Probes, Leiden, The Netherlands), which is based on the method described by Zhou and Panchuk-Voloshina (Anal. Biochem. 253, 169-174, 1997). Measurements were performed according to the manufacturers instructions. Briefly, prior to addition of the substrate, the samples were incubated for 30 min in a 96 well plate with drugs or solvent (total volume of 50 μl). Thereafter, 50 μl Amplex Red reagent was added containing 2 U/ml horseradisch peroxidase (HRP), p-tyramine HCl (2 mM, substrate for both MAO A and MAO B (Youdim and Finberg, Biochem. Pharmacol., 41, 155-162, 1991) and Amplex red (10 mM). Under these circumstances, via MAO-catalyzed oxidation of tyramine in a HRP-coupled reaction, Amplex red is converted to fluorescent resorufin. To measure MAO activity, the time-dependent increase in resorufin formation was determined at 2 min time intervals for 30 min at room temperature in a fluorescence microplate reader (BMG Labtechnologies GmbH, Germany), using excitation at 544 nm and emission at 595 nm. […] For calculation of results, the data were corrected for background readings (i.e., in the absence of the MAO substrate tyramine), and expressed as the increase in arbitrary fluorescence units/min. Protein content was determined according to the method of Bradford et al., (Anal. Biochem. 72, 248-254, 1976), using BSA as a standard. Statistical comparisons between groups were made using a one-way analysis of variance (ANOVA) followed by a Newman-Keuls post-hoc test. P values <0.01 were considered significant.
(§2) MAO activity and effects of the drugs thereon were determined as detailed above.
(§3) Data are expressed as percentages of respective controls, and are averages of two till five independent experiments performed in triplicate.

[2] = tested on: total monoamine oxidase (Σ MAO); conditions: for Σ MAO activity (% inhibition): solvent 0.03% DMSO only, neonatal rat striatal astroglial cell extracts
Procedure: as §1, §2, §3

[3] = molecular target: T2, monoamine oxidase A (MAO-A) (Rattus norvegicus, UniProt P21396); conditions: upon selective and complete blockade of MAO-B activity with deprenyl
T2 sequence (P21396 1-526): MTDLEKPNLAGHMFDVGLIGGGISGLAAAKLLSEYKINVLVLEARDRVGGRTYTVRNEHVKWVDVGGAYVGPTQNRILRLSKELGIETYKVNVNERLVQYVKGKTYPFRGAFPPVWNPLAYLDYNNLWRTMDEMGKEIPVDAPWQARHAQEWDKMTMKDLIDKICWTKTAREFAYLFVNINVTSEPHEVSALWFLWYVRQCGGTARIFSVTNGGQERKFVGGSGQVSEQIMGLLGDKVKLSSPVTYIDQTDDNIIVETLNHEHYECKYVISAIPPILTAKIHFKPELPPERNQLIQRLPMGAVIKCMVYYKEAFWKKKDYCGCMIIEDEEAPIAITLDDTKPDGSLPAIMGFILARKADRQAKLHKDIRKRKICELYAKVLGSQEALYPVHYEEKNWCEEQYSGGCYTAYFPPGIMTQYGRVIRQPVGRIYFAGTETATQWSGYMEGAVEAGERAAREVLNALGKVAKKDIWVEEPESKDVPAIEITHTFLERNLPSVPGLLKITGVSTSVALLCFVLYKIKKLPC
Procedure: as §1, §2, §3

MAO-B = MAO-B inhibitory activity measured at CEREP (protocol of Salach); format: biochemical
Procedure: MAO-B inhibitory activity of the compounds A1-D6 were measured at CEREP (Paris, France), according to the protocol described by J. L. Salach, Arch. Biochem. Biophys., 192, 128,1979.
MAO-B inhibitory activity of the compounds A1-D6 AS measured at CEREP (Paris, France), according to the protocol described by J. L. Salach, Arch. Biochem. Biophys., 192, 128, 1979.

[4] = read-out: MAO-B activity (% inhibition)

## COc1ccc(-c2cc(=S)ss2)cc1 [ADT, 5-(p-methoxyphenyl)-3H-1,2-dithiole-3-thione]
[1]; following selective and complete blockade of MAO-A activity by clorgyline
  concentration-effect relationship for MAO-B compared to inhibition of total MAO activity: identical concentration-effect relationships
[1]; [4]
  inhibition at 0.03 µM: 0%
  inhibition at 0.1 µM: 15%
  inhibition at 0.3 µM: 40%
  inhibition at 1 µM: 73%
  inhibition at 3 µM: 89%
  inhibition at 10 µM: 96%
  inhibition at 30 µM: 100%
[2]; 0.1 μM
  Σ MAO activity (% inhibition): 14%
[2]; 0.3 μM
  Σ MAO activity (% inhibition): 35%
[2]; 1 μM
  Σ MAO activity (% inhibition): 60%
[2]; 3 μM
  Σ MAO activity (% inhibition): 70%
[2]; 10 μM
  Σ MAO activity (% inhibition): 81%
[2]; 30 μM
  Σ MAO activity (% inhibition): 85%
[2]; at a concentration of 30 μM
  maximal effect on total MAO activity (inhibition): ~80%
[2]; read-out: apparent IC50, inhibition of total astroglial MAO activity, substrate tyramine, astroglial cell extracts
  pIC50: ~6.30
[3]
  effect on MAO-A activity: no statistically significant effect

## CCCCCCOc1ccc(-c2cssc2=S)cc1 [Compound A1]
MAO-B
  MAO-B %-inhibition at 10^−5 M: 100%
other
  melting point: 121 °C

## S=c1ssc(N2CCN(c3cccc4c3OCCO4)CC2)c1-c1ccccc1 [Compound B1]
MAO-B
  MAO-B %-inhibition at 10^−5 M: 65%

## Cc1ccc(-c2c(N3CCN(c4ccccc4)CC3)ssc2=S)cc1 [Compound B3]
MAO-B
  MAO-B %-inhibition at 10^−5 M: 54%

## CCN(CC)c1ccc(C=Cc2cc(=S)ss2)cc1 [Compound C1]
MAO-B
  MAO-B %-inhibition at 10^−5 M: 52%

## S=c1cc(C=Cc2ccc3ccccc3n2)ss1 [Compound C2]
MAO-B
  MAO-B %-inhibition at 10^−5 M: 56%

## S=c1ccss1 [Compound D3T, 3H-1,2-dithiole-3-thione]
[1]; in the presence of clorgyline
  maximally effective concentration, blockade of MAO-B activity: 300 µM
[1]; [4]
  inhibition at 1 µM: 2%
  inhibition at 3 µM: 6%
  inhibition at 10 µM: 24%
  inhibition at 30 µM: 59%
  inhibition at 100 µM: 82%
  inhibition at 300 µM: 92%
  inhibition at 1000 µM: 91%
[1]; read-out: apparent IC50, blockade of MAO-B activity
  pIC50: ~4.70
